How the values were obtained:
[1] = biological target: cyclase (RINm5f membranes); assay: Cyclase activation study (cAMP by SPA immunoassay, membranes); assay type: biochemical; conditions: cAMP in membranes, 20 minutes incubation at 37° C.
Method: GLP-1(7-36) [NH2] was purchased from Bachem (Torrance, Calif.). All other peptides were prepared using synthesis methods such as those described therein. All chemicals were of the highest commercial grade. The cAMP SPA immunoassay was purchased from Amersham. The radioligands were purchased from New England Nuclear (Boston, Mass.). […] Cells were grown to confluence then harvested and homogenized using on a Polytron homogenizer. Cell homogenates were stored frozen at −70° C. until used. […] Membranes and peptides were combined in […] of assay buffer in 96 well filter-bottom plates (Millipore Corp., Bedford, Mass.). […] Supernatant cAMP contents were quantitated by SPA immunoassay. […] The biological activity of a particular sample was expressed as an EC50 value, calculated as described above.

[2] = test system: Harlan Sprague Dawley (HSD) rats; assay: Gastric emptying in rats (phenol red gel gavage); assay type: in vivo; conditions: for EC50 (gastric emptying): conscious male HSD rats, gastric contents remaining 20 min after gavage; for effect on gastric emptying (in words): male HSD rats, dose-response 0.1-100 μg
From the text: This experiment followed a modification of the method of Scarpignato, et al., Arch. Int. Pharmacodyn. […] Male Harlan Sprague Dawley (HSD) rats were used. […] ID. […] Twenty minutes after gavage, rats were anesthetized using 5% halothane, the stomach exposed and clamped at the pyloric and lower esophageal sphincters using artery forceps, removed and opened into an alkaline solution which was made up to a fixed volume. Stomach content was derived from the intensity of the phenol red in the alkaline solution, measured by absorbance at a wavelength of 560 nm. In separate experiments on 7 rats, the stomach and small intestine were both excised and opened into an alkaline solution. […] ID.

[3] = test system: C57BLKS/J-m-db mice; assay: Determination of blood glucose levels in db/db mice; assay type: in vivo; conditions: 1 μg subcutaneous, plasma glucose one hour after injection vs baseline

SMILES	EC50 [1] [nM]	EC50 (gastric emptying) [2] [µg]	effect on gastric emptying (in words) [2]	% drop in glucose [3] [%]
CC[C@H](C)[C@H](NC(=O)[C@H](Cc1ccccc1)NC(=O)[C@H](CC(C)C)NC(=O)[C@H](CCCNC(=N)N)NC(=O)[C@@H](NC(=O)[C@H](C)NC(=O)[C@H](CCC(=O)O)NC(=O)[C@H](CCC(=O)O)NC(=O)[C@H](CCC(=O)O)NC(=O)[C@H](CC(C)C)NC(=O)[C@H](CCC(N)=O)NC(=O)[C@H](CCCCN)NC(=O)[C@H](CO)NC(=O)[C@H](CC(C)C)NC(=O)[C@H](CC(=O)O)NC(=O)[C@H](CO)NC(=O)[C@@H](NC(=O)[C@H](Cc1ccccc1)NC(=O)[C@H](C)NC(=O)CNC(=O)[C@H](CCC(=O)O)NC(=O)CNC(=O)[C@@H](N)Cc1c[nH]cn1)[C@@H](C)O)C(C)C)C(=O)N[C@@H](CCC(=O)O)C(=O)N[C@@H](Cc1ccccc1)C(=O)N[C@@H](CC(C)C)C(=O)N[C@@H](CCCCN)C(=O)N[C@@H](CC(N)=O)C(N)=O [Compound 5]	9.85			47
CC[C@H](C)[C@H](NC(=O)[C@H](Cc1ccccc1)NC(=O)[C@H](CC(C)C)NC(=O)[C@H](CCCNC(=N)N)NC(=O)[C@@H](NC(=O)[C@H](C)NC(=O)[C@H](CCC(=O)O)NC(=O)[C@H](CCC(=O)O)NC(=O)[C@H](CCC(=O)O)NC(=O)[C@H](CC(C)C)NC(=O)[C@H](CCC(N)=O)NC(=O)[C@H](CCCCN)NC(=O)[C@H](CO)NC(=O)[C@H](CC(C)C)NC(=O)[C@H](CC(=O)O)NC(=O)[C@H](CO)NC(=O)[C@@H](NC(=O)[C@H](C)NC(=O)[C@@H](NC(=O)CNC(=O)[C@H](CCC(=O)O)NC(=O)CNC(=O)[C@@H](N)Cc1c[nH]cn1)[C@@H](C)O)[C@@H](C)O)C(C)C)C(=O)N[C@@H](CCC(=O)O)C(=O)N[C@@H](Cc1ccccc1)C(=O)N[C@@H](CC(C)C)C(=O)N[C@@H](CCCCN)C(=O)N[C@@H](CC(N)=O)C(N)=O [Compound 6]	79.4			40

Continued, in another order:

EC50 [1] [nM]	EC50 (gastric emptying) [2] [µg]	SMILES	effect on gastric emptying (in words) [2]	% drop in glucose [3] [%]
79.6	60	CC[C@H](C)[C@H](NC(=O)[C@H](Cc1ccccc1)NC(=O)[C@H](CC(C)C)NC(=O)[C@H](CCCNC(=N)N)NC(=O)[C@@H](NC(=O)[C@H](C)NC(=O)[C@H](CCC(=O)O)NC(=O)[C@H](CCC(=O)O)NC(=O)[C@H](C)NC(=O)[C@H](CC(C)C)NC(=O)[C@H](CCC(N)=O)NC(=O)[C@H](CCCCN)NC(=O)[C@H](CO)NC(=O)[C@H](CC(C)C)NC(=O)[C@H](CC(=O)O)NC(=O)[C@H](CO)NC(=O)[C@@H](NC(=O)[C@H](Cc1ccccc1)NC(=O)[C@@H](NC(=O)CNC(=O)[C@H](CCC(=O)O)NC(=O)CNC(=O)[C@@H](N)Cc1c[nH]cn1)[C@@H](C)O)[C@@H](C)O)C(C)C)C(=O)N[C@@H](CCC(=O)O)C(=O)N[C@@H](Cc1ccccc1)C(=O)N[C@@H](CC(C)C)C(=O)N[C@@H](CCCCN)C(=O)N[C@@H](CC(N)=O)C(N)=O [Compound 13]	potent inhibitors of gastric emptying	45
5.12		CC[C@H](C)[C@H](NC(=O)[C@H](Cc1ccccc1)NC(=O)[C@H](CC(C)C)NC(=O)[C@H](CCCNC(=N)N)NC(=O)[C@H](C)NC(=O)[C@H](C)NC(=O)[C@H](CCC(=O)O)NC(=O)[C@H](CCC(=O)O)NC(=O)[C@H](CCC(=O)O)NC(=O)[C@H](CC(C)C)NC(=O)[C@H](CCC(N)=O)NC(=O)[C@H](CCCCN)NC(=O)[C@H](CO)NC(=O)[C@H](CC(C)C)NC(=O)[C@H](CC(=O)O)NC(=O)[C@H](CO)NC(=O)[C@@H](NC(=O)[C@H](Cc1ccccc1)NC(=O)[C@@H](NC(=O)CNC(=O)[C@H](CCC(=O)O)NC(=O)CNC(=O)[C@@H](N)Cc1c[nH]cn1)[C@@H](C)O)[C@@H](C)O)C(=O)N[C@@H](CCC(=O)O)C(=O)N[C@@H](Cc1ccccc1)C(=O)N[C@@H](CC(C)C)C(=O)N[C@@H](CCCCN)C(=O)N[C@@H](CC(N)=O)C(N)=O [Compound 16]		54
5.37	0.27	CC[C@H](C)[C@H](NC(=O)[C@H](Cc1ccccc1)NC(=O)[C@H](CC(C)C)NC(=O)[C@H](CCCNC(=N)N)NC(=O)[C@@H](NC(=O)[C@H](C)NC(=O)[C@H](CCC(=O)O)NC(=O)[C@H](CCC(=O)O)NC(=O)[C@H](CCC(=O)O)NC(=O)[C@H](CC(C)C)NC(=O)[C@H](CCC(N)=O)NC(=O)[C@H](C)NC(=O)[C@H](CO)NC(=O)[C@H](CC(C)C)NC(=O)[C@H](CC(=O)O)NC(=O)[C@H](CO)NC(=O)[C@@H](NC(=O)[C@H](Cc1ccccc1)NC(=O)[C@@H](NC(=O)CNC(=O)[C@H](CCC(=O)O)NC(=O)CNC(=O)[C@@H](N)Cc1c[nH]cn1)[C@@H](C)O)[C@@H](C)O)C(C)C)C(=O)N[C@@H](CCC(=O)O)C(=O)N[C@@H](Cc1ccccc1)C(=O)N[C@@H](CC(C)C)C(=O)N[C@@H](CCCCN)C(=O)N[C@@H](CC(N)=O)C(N)=O [Compound 10]	potent inhibitors of gastric emptying	46

Reference: patent US7696161B2, “Exendin agonist compounds” (Amylin Pharmaceuticals, Inc., priority 1997, dated 2010)
